This is an account of results in article PMC3503319 (Biochemistry, 2010).

The test has as its target B. subtilis DAPAS (Bs-DAPAS) (Bacillus subtilis, UniProt P53555). Nature of the test: X-ray crystal structure, […] Å. Type of test: binding. The conditions noted are these: active site.

SMILES strings stand for the structures.

Chain of B. subtilis DAPAS (Bs-DAPAS) (P53555 whole entry, looked up): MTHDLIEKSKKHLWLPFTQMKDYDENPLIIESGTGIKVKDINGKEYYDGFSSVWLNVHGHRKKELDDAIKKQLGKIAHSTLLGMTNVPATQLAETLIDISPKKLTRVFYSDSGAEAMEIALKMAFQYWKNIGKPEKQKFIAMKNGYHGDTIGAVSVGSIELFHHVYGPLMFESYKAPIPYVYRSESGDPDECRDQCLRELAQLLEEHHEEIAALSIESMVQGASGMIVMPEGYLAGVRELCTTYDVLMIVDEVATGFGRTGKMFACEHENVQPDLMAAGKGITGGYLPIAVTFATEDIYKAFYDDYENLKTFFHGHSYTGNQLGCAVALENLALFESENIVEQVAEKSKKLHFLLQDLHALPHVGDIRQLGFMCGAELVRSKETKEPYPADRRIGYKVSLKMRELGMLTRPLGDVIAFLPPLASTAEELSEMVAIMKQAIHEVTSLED

Take `Cc1ncc(COP(=O)(O)O)c(C=O)c1O` [PLP]: the “X-ray crystal structure, 1.9 Å (cocrystallization, 1 mM PLP)” value is listed as “the crystal structure of the B. subtilis DAPAS apoprotein, its PLP-bound complex”.
